Assays:
[1] = tested on: recombinant NL4-3 virus (nef section replaced with Renilla luciferase gene) in MT-2 cells; test: HIV cell culture assay (antiviral activity, luciferase readout in infected MT-2 cells); type: cell-based; details: Renilla, NL43
Description: HIV cell culture assay-MT-2 cells, 293T cells and the proviral DNA clone of NL4-3 virus were obtained from the NIH AIDS Research and Reference Reagent Program. MT-2 cells were propagated in RPMI 1640 media supplemented with 10% heat inactivated fetal bovine serum (FBS), 100 μg/ml penicillin G and up to 100 units/mL streptomycin. The 293T cells were propagated in DMEM media supplemented with 10% heat inactivated FBS, 100 μg/mL penicillin G and 100 μg/mL streptomycin. A recombinant NL4-3 proviral clone, in which a section of the nef gene was replaced with the Renilla luciferase gene, was used to make the reference virus used in these studies. The recombinant virus was prepared through transfection of the recombinant NL4-3 proviral clone into 293T cells using Transit-293 Transfection Reagent from Minis Bio LLC (Madison, WI). Supernatent was harvested after 2-3 days and the amount of virus present was titered in MT-2 cells using luciferase enzyme activity as a marker by measuring luciferase enzyme activity. Luciferase was quantitated using the EnduRen Live Cell Substrate from Promega (Madison, WI). Antiviral activities of compounds toward the recombinant virus were quantified by measuring luciferase activity in MT-2 cells infected for 4-5 days with the recombinant virus in the presence of serial dilutions of the compound.
The 50% effective concentration (EC50) was calculated by using the exponential form of the median effect equation where (Fa)=1/[1+(ED50/drug conc.)m] (Johnson V A, Byington R T. Infectivity Assay. In Techniques in HIV Research. ed. Aldovini A, Walker B D. 71-76. New York: Stockton Press. 1990).

[2] = Compound cytotoxicity, XTT-based colorimetric assay; type: cell-based; details: human; uninfected MT2 cells, day 4, XTT assay
Description: Compound cytotoxicity and the corresponding CC50 values were determined using the same protocol as described in the antiviral assay except that uninfected cells were used. Cytotoxicity was assessed on day 4 in uninfected MT2 cells by using an XTT (2,3-bis[2-Methoxy-4-nitro-5-sulfophenyl]-2H-tetrazolium-5-carboxyanilide inner salt)-based colorimetric assay (Sigma-Aldrich, St Louis, Mo.).

SMILES: CO[C@H](C)COc1ccc2c(=O)n(-c3ccc(Cl)c4c(NS(C)(=O)=O)nn(C)c34)c([C@H](Cc3cc(F)cc(F)c3)NC(=O)Cn3nc(C(F)F)c4c3C(F)(F)[C@@H]3C[C@H]43)nc2n1 [Example 31, N—((S)-1-((3P)-3-(4-chloro-1-methyl-3-(methylsulfonamido)-1H-indazol-7-yl)-7-((R)-2-methoxypropoxy)-4-oxo-3,4-dihydropyrido[2,3-d]pyrimidin-2-yl)-2-(3,5-difluorophenyl)ethyl)-2-((3bS,4aR)-3-(difluoromethyl)-5,5-difluoro-3b,4,4a,5-tetrahydro-1H-cyclopropa[3,4]cyclopenta[1,2-c]pyrazol-1-yl)acetamide]
- EC50 [1]: 0.019 nM
- CC50 at 4 days [2]: > 100 nM

SMILES: CC(C)OCCOc1ccc2c(=O)n(-c3ccc(Cl)c4c(NS(C)(=O)=O)nn(C)c34)c([C@H](Cc3cc(F)cc(F)c3)NC(=O)Cn3nc(C(F)F)c4c3C(F)(F)[C@@H]3C[C@H]43)nc2n1 (atropisomer, axis not shown; (P)) [Example 4, N—((S)-1-((3P)-3-(4-chloro-1-methyl-3-(methylsulfonamido)-1H-indazol-7-yl)-7-(2-isopropoxyethoxy)-4-oxo-3,4-dihydropyrido[2,3-d]pyrimidin-2-yl)-2-(3,5-difluorophenyl)ethyl)-2-((3bS,4aR)-3-(difluoromethyl)-5,5-difluoro-3b,4,4a,5-tetrahydro-1H-cyclopropa[3,4]cyclopenta[1,2-c]pyrazol-1-yl)acetamide]
- EC50 [1]: < 0.05 nM
- CC50 at 4 days [2]: > 1000 nM

SMILES: Cn1nc(NS(C)(=O)=O)c2c(Cl)ccc(-n3c([C@H](Cc4cc(F)cc(F)c4)NC(=O)Cn4nc(C(F)F)c5c4C(F)(F)[C@@H]4C[C@H]54)nc4nc(OCCCS(C)(=O)=O)ccc4c3=O)c21 (atropisomer, axis not shown; (P)) [Example 20, N—((S)-1-((3P)-3-(4-chloro-1-methyl-3-(methylsulfonamido)-1H-indazol-7-yl)-7-(3-(methylsulfonyl)propoxy)-4-oxo-3,4-dihydropyrido[2,3-d]pyrimidin-2-yl)-2-(3,5-difluorophenyl)ethyl)-2-((3bS,4aR)-3-(difluoromethyl)-5,5-difluoro-3b,4,4a,5-tetrahydro-1H-cyclopropa[3,4]cyclopenta[1,2-c]pyrazol-1-yl)acetamide]
- EC50 [1]: 0.18 nM
- CC50 at 4 days [2]: > 500 nM

SMILES: Cn1nc(NS(C)(=O)=O)c2c(Cl)ccc(-n3c([C@H](Cc4cc(F)cc(F)c4)NC(=O)Cn4nc(C(F)F)c5c4C(F)(F)[C@@H]4C[C@H]54)nc4nc(OCCC(C)(C)C)ccc4c3=O)c21 (atropisomer, axis not shown; (P)) [Example 3, N—((S)-1-((3P)-3-(4-chloro-1-methyl-3-(methylsulfonamido)-1H-indazol-7-yl)-7-(3,3-dimethylbutoxy)-4-oxo-3,4-dihydropyrido[2,3-d]pyrimidin-2-yl)-2-(3,5-difluorophenyl)ethyl)-2-((3bS,4aR)-3-(difluoromethyl)-5,5-difluoro-3b,4,4a,5-tetrahydro-1H-cyclopropa[3,4]cyclopenta[1,2-c]pyrazol-1-yl)acetamide]
- EC50 [1]: 0.06 nM
- CC50 at 4 days [2]: > 1000 nM

SMILES: CCCCOCCOc1ccc2c(=O)n(-c3ccc(Cl)c4c(NS(C)(=O)=O)nn(C)c34)c([C@H](Cc3cc(F)cc(F)c3)NC(=O)Cn3nc(C(F)F)c4c3C(F)(F)[C@@H]3C[C@H]43)nc2n1 (atropisomer, axis not shown; (P)) [Example 27, N—((S)-1-(7-(2-butoxyethoxy)-(3P)-3-(4-chloro-1-methyl-3-(methylsulfonamido)-1H-indazol-7-yl)-4-oxo-3,4-dihydropyrido[2,3-d]pyrimidin-2-yl)-2-(3,5-difluorophenyl)ethyl)-2-((3bS,4aR)-3-(difluoromethyl)-5,5-difluoro-3b,4,4a,5-tetrahydro-1H-cyclopropa[3,4]cyclopenta[1,2-c]pyrazol-1-yl)acetamide]
- EC50 [1]: 0.041 nM
- CC50 at 4 days [2]: > 100 nM

SMILES: Cn1nc(NS(C)(=O)=O)c2c(Cl)ccc(-n3c([C@H](Cc4cc(F)cc(F)c4)NC(=O)Cn4nc(C(F)F)c5c4C(F)(F)[C@@H]4C[C@H]54)nc4nc(OCCc5nccs5)ccc4c3=O)c21 (atropisomer, axis not shown; (P)) [Example 18, N—((S)-1-((3P)-3-(4-chloro-1-methyl-3-(methylsulfonamido)-1H-indazol-7-yl)-4-oxo-7-(2-(thiazol-2-yl)ethoxy)-3,4-dihydropyrido[2,3-d]pyrimidin-2-yl)-2-(3,5-difluorophenyl)ethyl)-2-((3bS,4aR)-3-(difluoromethyl)-5,5-difluoro-3b,4,4a,5-tetrahydro-1H-cyclopropa[3,4]cyclopenta[1,2-c]pyrazol-1-yl)acetamide]
- EC50 [1]: 0.038 nM
- CC50 at 4 days [2]: > 500 nM

SMILES: CC(C)(C)CCOc1ccc2c(=O)n(-c3ccc(Cl)c4c(NS(C)(=O)=O)nn(CC(F)F)c34)c([C@H](Cc3cc(F)cc(F)c3)NC(=O)Cn3nc(C(F)F)c4c3C(F)(F)[C@@H]3C[C@H]43)nc2n1 (atropisomer, axis not shown; (P)) [Example 14, N—((S)-1-((3P)-3-(4-chloro-1-(2,2-difluoroethyl)-3-(methylsulfonamido)-1H-indazol-7-yl)-7-(3,3-dimethylbutoxy)-4-oxo-3,4-dihydropyrido[2,3-d]pyrimidin-2-yl)-2-(3,5-difluorophenyl)ethyl)-2-((3bS,4aR)-3-(difluoromethyl)-5,5-difluoro-3b,4,4a,5-tetrahydro-1H-cyclopropa[3,4]cyclopenta[1,2-c]pyrazol-1-yl)acetamide]
- EC50 [1]: 0.12 nM
- CC50 at 4 days [2]: > 500 nM

SMILES: Cn1nc(NS(C)(=O)=O)c2c(Cl)ccc(-n3c([C@H](Cc4cc(F)cc(F)c4)NC(=O)Cn4nc(C(F)F)c5c4C(F)(F)[C@@H]4C[C@H]54)nc4nc(OCc5ccccc5)ccc4c3=O)c21 (atropisomer, axis not shown; (P)) [Example 26, N—((S)-1-(7-(benzyloxy)-(3P)-3-(4-chloro-1-methyl-3-(methylsulfonamido)-1H-indazol-7-yl)-4-oxo-3,4-dihydropyrido[2,3-d]pyrimidin-2-yl)-2-(3,5-difluorophenyl)ethyl)-2-((3bS,4aR)-3-(difluoromethyl)-5,5-difluoro-3b,4,4a,5-tetrahydro-1H-cyclopropa[3,4]cyclopenta[1,2-c]pyrazol-1-yl)acetamide]
- EC50 [1]: 0.1 nM
- CC50 at 4 days [2]: > 100 nM

SMILES: Cn1nc(NS(C)(=O)=O)c2c(Cl)ccc(-n3c([C@H](Cc4cc(F)cc(F)c4)NC(=O)Cn4nc(C(F)F)c5c4C(F)(F)[C@@H]4C[C@H]54)nc4nc(OCCCC(C)(C)C)ccc4c3=O)c21 (atropisomer, axis not shown; (P)) [Example 19]
- EC50 [1]: 0.11 nM

SMILES: CCC(C)(C)CCOc1ccc2c(=O)n(-c3ccc(Cl)c4c(NS(C)(=O)=O)nn(C)c34)c([C@H](Cc3cc(F)cc(F)c3)NC(=O)Cn3nc(C(F)F)c4c3C(F)(F)[C@@H]3C[C@H]43)nc2n1 (atropisomer, axis not shown; (P)) [Example 13, N—((S)-1-((3P)-3-(4-chloro-1-methyl-3-(methylsulfonamido)-1H-indazol-7-yl)-7-((3,3-dimethylpentyl)oxy)-4-oxo-3,4-dihydropyrido[2,3-d]pyrimidin-2-yl)-2-(3,5-difluorophenyl)ethyl)-2-((3bS,4aR)-3-(difluoromethyl)-5,5-difluoro-3b,4,4a,5-tetrahydro-1H-cyclopropa[3,4]cyclopenta[1,2-c]pyrazol-1-yl)acetamide]
- EC50 [1]: 0.17 nM

From patent US11919897B2, “Inhibitors of human immunodeficiency virus replication” (VIIV HEALTHCARE UK (No. 5) LIMITED, priority 2018, dated 2024)
